Data taken from patent publication US20100234364A1, “CCR2 INHIBITORS AND METHODS OF USE THEREOF” (priority 2007, published 2010).

Each compound was assayed against T1, CCR2 (Homo sapiens, UniProt P41597) (assay: chemotaxis (conventional migration), ligand binding or calcium mobilization (calcium flux) assays). Conditions: Table 2: activity in one of the chemotaxis.
T1 construct: chemokine expressing cells (such as THP-1 cells for CCR2 assay or MOLT-4 cells for CCR9 assay); host or cells: THP-1 cells
T1 sequence (P41597 whole entry): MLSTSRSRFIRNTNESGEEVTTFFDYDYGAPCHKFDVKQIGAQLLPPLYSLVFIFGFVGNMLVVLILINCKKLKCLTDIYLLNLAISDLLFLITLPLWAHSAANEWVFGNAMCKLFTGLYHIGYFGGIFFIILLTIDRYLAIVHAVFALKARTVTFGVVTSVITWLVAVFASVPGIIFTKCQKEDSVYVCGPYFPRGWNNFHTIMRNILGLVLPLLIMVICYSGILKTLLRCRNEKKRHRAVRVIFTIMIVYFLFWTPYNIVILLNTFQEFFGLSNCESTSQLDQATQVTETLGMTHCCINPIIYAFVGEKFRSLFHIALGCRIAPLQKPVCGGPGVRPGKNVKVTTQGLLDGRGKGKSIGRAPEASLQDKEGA
Type: cell-based
Procedure: THP-1 cells and MOLT-4 cells were obtained from the American Type Culture Collection (Manassas, Va.) and cultured in RPMI tissue culture medium supplemented with 10% fetal calf serum (FCS) in a humidified 5% CO2 incubator at 37° C. Recombinant human chemokine proteins MCP-1 and TECK were obtained from R&D Systems (Minneapolis, Minn.). ^125I-labeled MCP-1 protein was obtained from Amersham (Piscataway, N.J.). ChemoTX® chemotaxis microchambers were purchased from Neuro Probe (Gaithersburg, Md.). CyQUANT® cell proliferation kits were purchased from Molecular Probes (Eugene, Oreg.). Calcium indicator dye Fluo-4 AM was purchased from Molecular Devices (Mountain View, Calif.).
Conventional-migration assay was used to determine the efficacy of potential receptor antagonists in blocking migration mediated through chemokines (such as CCR2 or CCR9). This assay was routinely performed using the ChemoTX® microchamber system with a 5-μm pore-sized polycarbonate membrane. To begin such an assay, chemokine expressing cells (such as THP-1 cells for CCR2 assay or MOLT-4 cells for CCR9 assay) were harvested by centrifugation of cell suspension at 1000 RPM on a GS-6R Beckman centrifuge. The cell pellet was resuspended in chemotaxis buffer (HBSS with 0.1% BSA) at 10×10^6cells/mL for CCR2 assay (5 ×10^6cells/mL for CCR9 assay). Test compounds at desired concentrations were prepared from 10 mM stock solutions by serial dilutions in chemotaxis buffer. An equal volume of cells and compounds were mixed and incubated at room temperature for 15 minutes. Afterwards, 20 μL of the mixture was transferred onto the porous membrane of a migration microchamber, with 29 μL of chemokine ligand (0.1 nM chemokine MCP-1 protein for CCR2 assay or 50 nm chemokine TECK protein for CCR9 assay) placed at the lower chamber. Following an incubation at 37° C. (90-minute for CCR2; 150-minute for CCR9), during which cells migrated […] the chemokine gradient, the assay was terminated by removing the cell drops from atop the filter. To quantify cells migrated across the membrane, 5 μL of 7X CyQUANT® solution was added to each well in the lower chamber, and the fluorescence signal measured on a Spectrafluor Plus fluorescence plate reader (TECAN, Durham, N.C.). The degree of inhibition was determined by comparing migration signals between compound-treated and untreated cells. IC50 calculation was further performed by non-linear squares regression analysis using Graphpad Prism (Graphpad Software, San Diego, Calif.).
Calcium flux assay measures an increase in intracellular calcium following ligand-induced receptor activation. In the screen of chemokine antagonists, it was used as a secondary assay carried out on a FLIPR® machine (Molecular Devices, Mountain View, Calif.). To begin an assay, chemokine expressing cells (such as THP-1 cells for CCR2 assay or MOLT-4 cells for CCR9 assay) were harvested by centrifugation of cell suspension, and resuspended to 1.5×10^6 cells/mL in HBSS (with 1% fetal calf serum). Cells were then labeled with a calcium indicator dye Fluo-4 AM for 45 minutes at 37° C. with gentle shaking. Following incubation, cells were pelletted, washed once with HBSS and resuspended in the same buffer at a density of 1.6×10^6 cells/mL. One hundred microliters of labeled cells were mixed with 10 μL of test compound at the appropriate concentrations on an assay plate. Chemokine protein (MCP-1 at a final concentration of 0.1 nM for CCR2 assay or TECK at a final concentration of 25 nM for CCR9 assay) to activate the receptor. The degree of inhibition was determined by comparing calcium signals between compound-treated and untreated cells. IC50 calculations were further performed by non-linear squares regression analysis using Graphpad Prism (Graphpad Software, San Diego, Calif.).
Ligand binding assay was used to determine the ability of potential CCR2 antagonists to block the interaction between CCR2 and its ligand MCP-1. […]

Row | SMILES | IC50 [nM]
1 | Cc1cc(S(=O)(=O)Nc2cc(Cl)ccc2C(=O)N(C)c2ccccn2)ccc1Cl | < 500
2 | O=C(c1ccccc1)c1cc(F)ccc1NS(=O)(=O)c1ccc(Cl)c(Cl)c1 [drawing 300] | < 500
3 | O=C(c1ccccc1)c1ccc(Cl)cc1NS(=O)(=O)c1ccc(Cl)cc1 | < 500
4 | O=C(c1cccnc1)c1cc(Cl)ccc1NS(=O)(=O)c1ccc(Cl)c(Cl)c1 | < 500
5 | O=C(c1ccc(Cl)cc1NS(=O)(=O)c1ccc(Cl)c([N+](=O)[O-])c1)N1CCOCC1 | < 500
6 | O=C(c1ccccc1)c1cc(Cl)ccc1NS(=O)(=O)c1ccc(Cl)c(C(F)(F)F)c1 [drawing 302] | < 500
7 | O=C(c1ccccc1)c1cc(Cl)ccc1NS(=O)(=O)c1ccc(Cl)c(Cl)c1 [drawing 296] | < 500
8 | Cn1cncc1C(=O)c1ccc(Cl)cc1NS(=O)(=O)c1ccc(Cl)c(C(F)(F)F)c1 | < 500
9 | CN(C(=O)c1ccc(Cl)cc1NS(=O)(=O)c1cccc(C(F)(F)F)c1)c1ccccn1 | < 500
10 | O=C(c1ccccc1)c1ccc(Cl)cc1NS(=O)(=O)c1cccc(C(F)(F)F)c1 | < 500
11 | Cc1ccc(C(=O)c2cc(Cl)ccc2NS(=O)(=O)c2ccc(Cl)c(Cl)c2)cn1 | < 500
12 | O=C(c1ccc(Cl)cc1NS(=O)(=O)c1ccc(Cl)c(C(F)(F)F)c1)N1CCOCC1 | < 500
13 | CC(C)(C)c1ccc(S(=O)(=O)Nc2ccc(Cl)cc2-c2nncc3ccccc23)cc1 | < 500
14 | O=C(c1ccc(Cl)cc1NS(=O)(=O)c1ccc(Cl)c(C(F)(F)F)c1)N1CCCCC1 [drawing 291] | < 500
15 | O=C(c1ccc(Cl)cc1NS(=O)(=O)c1ccc(Cl)c(C(F)(F)F)c1)N1CCS(=O)(=O)CC1 | < 500
16 | O=C(c1ccc(Cl)cc1NS(=O)(=O)c1ccc(Cl)c(C(F)(F)F)c1)N1CCCC1 | < 500
17 | O=C(c1ccccc1F)c1cc(Cl)ccc1NS(=O)(=O)c1ccc(Cl)c(Cl)c1 [drawing 306] | < 500
18 | O=C(c1ccc(Cl)cc1NS(=O)(=O)c1ccc(Cl)c(Cl)c1)N1CCOCC1 | < 500
19 | O=C(c1ccccc1)c1ccc(Cl)cc1NS(=O)(=O)c1ccc(F)c(F)c1 | < 500
20 | O=C(c1ccc(Cl)cc1NS(=O)(=O)c1ccc(Cl)c(C(F)(F)F)c1)c1ccnc2[nH]ccc12 | < 500
21 | Cn1ccnc1C(O)c1cc(Cl)ccc1NS(=O)(=O)c1ccc(Cl)c(Cl)c1 (stereo not drawn) [drawing 303] | < 500
22 | O=C(c1ccccc1)c1ccc(F)cc1NS(=O)(=O)c1ccc(Cl)c(C(F)(F)F)c1 | < 500
23 | COC(=O)C1CCCN1C(=O)c1ccc(Cl)cc1NS(=O)(=O)c1ccc(Cl)c(C(F)(F)F)c1 (stereo not drawn) | < 500
24 | O=C(c1cocn1)c1cc(Cl)ccc1NS(=O)(=O)c1ccc(Cl)c(C(F)(F)F)c1 | < 500
25 | Cc1nnc(-c2cc(Cl)ccc2NS(=O)(=O)c2ccc(C(C)(C)C)cc2)c2ccccc12 | < 500
26 | Cn1nc(-c2cc(Cl)ccc2NS(=O)(=O)c2ccc(Cl)c(C(F)(F)F)c2)c2ccccc21 | < 500
27 | O=C(c1ccccc1)c1ccc(Cl)cc1NS(=O)(=O)c1ccc(Cl)c(C(F)(F)F)c1 [drawing 278] | < 500
28 | O=C(c1ccccc1)c1ccc(Br)cc1NS(=O)(=O)c1ccc(Cl)c(Cl)c1 [drawing 301] | < 500
29 | O=C(c1ccccc1)c1cc(Cl)ccc1NS(=O)(=O)c1ccc(Cl)cc1 [drawing 298] | < 500
30 | Cn1ccc(C(=O)c2cc(Cl)ccc2NS(=O)(=O)c2ccc(Cl)c(C(F)(F)F)c2)n1 [drawing 311] | < 500

Same assay, conditions: Table 3: activity in one of the chemotaxis

Row | SMILES | IC50 [nM]
31 | Cc1ccc(C(=O)c2ccccc2)c(NS(=O)(=O)c2ccc(Cl)c(C(F)(F)F)c2)c1 | 500 to 5000
32 | O=S(=O)(Nc1cc(Cl)ccc1-c1ncco1)c1ccc(Cl)c(Cl)c1 | 500 to 5000
33 | O=C(c1ccccc1)c1cc(Cl)ccc1NS(=O)(=O)c1ccc(Cl)c(Cl)c1 [drawing 342] | 500 to 5000
34 | O=C(c1ccccc1F)c1cc(Cl)ccc1NS(=O)(=O)c1ccc(Cl)c(Cl)c1 [drawing 335] | 500 to 5000
35 | COC(=O)c1cc(NS(=O)(=O)c2ccc(Cl)c(Cl)c2)c(C(=O)c2ccccc2)cc1Cl | 500 to 5000
36 | O=C(c1ccc(Cl)cc1NS(=O)(=O)c1ccc(C(F)(F)F)cc1Cl)N1CCOCC1 | 500 to 5000
37 | O=C(c1cc(Br)ccc1NS(=O)(=O)c1ccc(Cl)cc1)N1CCOCC1 | 500 to 5000
38 | O=C(c1cc(Cl)ccc1NS(=O)(=O)c1ccc(Cl)c(Cl)c1)N1CCOCC1 | 500 to 5000
39 | O=C(c1cc(Cl)ccc1NS(=O)(=O)c1cccc(Cl)c1)N1CCOCC1 | 500 to 5000
40 | O=C(c1ccccc1)c1cc(Cl)ccc1NS(=O)(=O)c1ccc(Cl)c(C(F)(F)F)c1 [drawing 337] | 500 to 5000
41 | O=C(c1cc(Cl)ccc1NS(=O)(=O)c1ccc(Cl)cc1Cl)N1CCOCC1 | 500 to 5000
42 | O=C(c1ccccc1)c1ccc(Br)cc1NS(=O)(=O)c1ccc(Cl)c(Cl)c1 [drawing 328] | 500 to 5000
43 | O=C(c1ccccc1)c1cc(Cl)ccc1NS(=O)(=O)c1ccc(Cl)c([N+](=O)[O-])c1 | 500 to 5000
44 | O=C(c1ccccn1)c1cc(Cl)ccc1NS(=O)(=O)c1ccc(Cl)c(C(F)(F)F)c1 | 500 to 5000
45 | O=C(c1ccc(F)cc1)c1cc(Cl)ccc1NS(=O)(=O)c1ccc(Cl)c(Cl)c1 [drawing 336] | 500 to 5000
46 | O=C(O)C1CCCN1C(=O)c1ccc(Cl)cc1NS(=O)(=O)c1ccc(Cl)c(C(F)(F)F)c1 (stereo not drawn) | 500 to 5000
47 | O=S(=O)(Nc1ccccc1Oc1ccccc1)c1ccc(Cl)c(Cl)c1 | 500 to 5000
48 | O=S(=O)(Nc1ccc(Cl)cc1-c1ccccc1)c1ccc(Cl)c(Cl)c1 | 500 to 5000

Row | SMILES | IC50 [nM]
49 | O=C(c1cc(Cl)ccc1NS(=O)(=O)c1ccc(Cl)cc1)N1CCCCC1 | 500 to 5000
50 | O=C(c1ccccc1)c1ccc(Cl)cc1NS(=O)(=O)c1ccc(Cl)c(C(F)(F)F)c1 [drawing 344] | 500 to 5000
51 | O=C(c1ccccc1)c1cc(Cl)ccc1NS(=O)(=O)c1ccc(Cl)cc1 [drawing 330] | 500 to 5000
52 | O=C(c1ccc(Cl)cc1NS(=O)(=O)c1ccc(Cl)cc1)N1CCOCC1 | 500 to 5000
53 | Cn1ccc(C(=O)c2cc(Cl)ccc2NS(=O)(=O)c2ccc(Cl)c(C(F)(F)F)c2)n1 [drawing 322] | 500 to 5000
54 | Cn1ccnc1C(O)c1cc(Cl)ccc1NS(=O)(=O)c1ccc(Cl)c(Cl)c1 (stereo not drawn) [drawing 327] | 500 to 5000
55 | Cc1cccc(S(=O)(=O)Nc2ccc(Cl)cc2C(=O)N2CCOCC2)c1 | 500 to 5000
56 | O=S(=O)(Nc1cc(Cl)ccc1-c1nnn[nH]1)c1ccc(Cl)c(C(F)(F)F)c1 | 500 to 5000
57 | Cn1ccnc1C(=O)c1cc(Cl)ccc1NS(=O)(=O)c1ccc(Cl)c(Cl)c1 | 500 to 5000
58 | O=C(c1cc(Cl)ccc1NS(=O)(=O)c1ccc(Cl)cc1)N1CCOCC1 | 500 to 5000
59 | O=C(c1cc(Cl)ccc1NS(=O)(=O)c1ccc(Br)cc1)N1CCOCC1 | 500 to 5000
60 | O=C(c1ccccc1)c1cc(Cl)ccc1NS(=O)(=O)c1ccc(F)c(Cl)c1 | 500 to 5000
61 | O=C(c1ccccc1)c1cc(F)ccc1NS(=O)(=O)c1ccc(Cl)c(Cl)c1 [drawing 338] | 500 to 5000
62 | O=C(c1ccccc1)c1cc(Cl)ccc1NS(=O)(=O)c1cccc(C(F)(F)F)c1 | 500 to 5000
63 | COc1ccc(NS(=O)(=O)c2ccc(Cl)c(Cl)c2)c(C(=O)N2CCOCC2)c1 | 500 to 5000
64 | Cn1ccnc1C(=O)c1cc(Cl)ccc1NS(=O)(=O)c1ccc(Cl)c([N+](=O)[O-])c1 | 500 to 5000
65 | O=C(c1ccc(Cl)cc1NS(=O)(=O)c1ccc(Br)c(F)c1)N1CCOCC1 | 500 to 5000
66 | N#Cc1cc(S(=O)(=O)Nc2cc(Cl)ccc2C(=O)c2ccccc2)ccc1F | 500 to 5000
